Read-outs that look alike come from different tables or passages of the source.
What was measured:
[1] = molecular target: T1, PAR2 (Homo sapiens, UniProt P55085); test: Intracellular calcium concentration measurement (SLIGKV-NH2-induced calcium change, Fluo-8, FDSS/μCELL); type: cell-based
T1 construct: HEK293 cell lines derived from human embryonic kidney cultured in a MEM culture medium; endogenous in cells; host or cells: HEK293
T1 sequence (P55085 26-397): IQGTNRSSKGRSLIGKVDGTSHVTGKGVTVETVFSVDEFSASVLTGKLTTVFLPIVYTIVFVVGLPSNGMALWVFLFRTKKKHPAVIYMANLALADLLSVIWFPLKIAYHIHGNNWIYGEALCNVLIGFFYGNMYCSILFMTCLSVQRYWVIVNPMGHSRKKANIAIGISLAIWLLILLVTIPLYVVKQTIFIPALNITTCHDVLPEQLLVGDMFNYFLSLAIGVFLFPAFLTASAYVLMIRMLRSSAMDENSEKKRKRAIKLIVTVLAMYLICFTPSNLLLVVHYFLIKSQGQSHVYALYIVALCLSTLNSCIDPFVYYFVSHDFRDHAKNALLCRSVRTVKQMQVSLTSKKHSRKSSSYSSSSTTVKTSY

[2] = tested on: NZW rabbits; test: Rabbit skin cumulative irritation test (erythema and edema scores, 7 days); type: in vivo; design: key: sum of erythema (5-point scale) + edema (5-point scale) scores; conditions: 50 μL of 3% solution in 70% ethanol daily for 7 days; for Irritant score Day 7: average total score of erythema and edema on Day 7; for Irritant score Maximum: maximum (total) score of erythema and edema during the test period
Protocol: Test Example 4: Rabbit Skin Cumulative Irritation Test
18-20 week-old female NZW rabbits shaved on the back with a shaver were fitted with a collar (Natsume Seisakusho Co., Ltd.). A 2.5 cm×2.5 cm frame was placed on the back of the rabbits, and 50 μL of a 3% solution of each compound in 70% ethanol was applied to the place in 2 or 3 rabbits. The next day (approximately 24 hours later), the compound applied on the previous day was wiped off with a cotton pad soaked in lukewarm water, and approximately 30 minutes later, erythema (5-point scale) and edema (5-point scale) were evaluated according to the score criteria shown below.
After the score evaluation, the compound was applied again. This process was conducted for 7 days, and irritancy was evaluated by the average of the total score of erythema and edema on the last day of evaluation (Day 7) and the maximum (total) scores during the test period.
The score evaluation criteria were as follows.

[3] = tested on: NC/Nga mice; test: Scratching behavior test using atopic dermatitis model (SDS and mite antigen ointment sensitization); conditions: 60 μL applied, 7 hours after application
[4] = tested on: ICR mice; test: Scratching behavior test with PAR2 agonist peptide (SLIGRL-NH2) administration; type: in vivo, mouse; conditions: 40 μL of 6% test compound solution applied to back, SLIGRL-NH2 intradermal, scratching counted 10 to 40 minutes after
Protocol: Test Example 2: Scratching Behavior Test with PAR2 Agonist Peptide Administration
Magnets for measuring scratching behavior(Neuroscience, Inc.) were implanted in both legs of 6- to 7-week-old female ICR mice under 3.5% isoflurane inhalation anesthesia.
Under isoflurane inhalation anesthesia, the upper back was shaved about 2×3 cm with a shaver and 40 μL of a 6% of test compound solution was applied with a micropipette. The animals were then kept in a dedicated cage for 1 hour. […] Then, under isoflurane inhalation anesthesia, 10 μL of a 25 mg/mL solution of PAR2 agonist peptide (SLIGRL-NH2) in distilled water was administered intradermally by using a needle attached to a Hamilton syringe. The animals were returned to the cage and the scratching frequency was measured by the device for 30 minutes from 10 to 40 minutes after the administration.
The inhibitory effect of the test compounds on scratching behavior was calculated as a percentage of the number of scratches in the solvent-applied and PAR2 agonist peptide-treated group, and is shown in Table 4 as a percentage.

[5] = HEK293 cells, SLIGKV-NH2 10 μM-induced intracellular calcium change, read-out: IC50
[6] = assessed concentration 6%, solvent 100% ethanol
[7] = assessed concentration 6%, solvent 70% ethanol
[8] = assessed concentration 1%, solvent 100% ethanol

SMILES	IC50 [1, 5]	scratching-behavior inhibition rate ([4]; solvent 100% ethanol)	other results
CC(C)c1cc(CCC2CCCCC2)nc2cc(C(=O)N3CCCCCC3)nn12 [Example 17]	232 nM		Irritant score Day 7 [2]: 0.7; Irritant score Maximum [2]: 1.3; Scratching behavior inhibition rate [3, 6]: 60%
CC(C)c1cc(CC2CCCC2)nc2cc(C(=O)N3CCCC(O)C3(C)C)nn12 (stereo not drawn) [Example 117]	169 nM	34%	
CC(C)c1cc(CC2CCCC2)nc2cc(C(=O)N3CCSCC3(C)C)nn12 [Example 18]	36 nM	39%	
CCC(CC)c1cc(CC2CCCC2)nc2cc(C(=O)N3CCCCC3(C)C)nn12 [Example 13]	69 nM	37%	
O=C(c1cc2nc(CCC3CCCC3)cc(C(F)(F)F)n2n1)N1CCCCCC1 [Example 6, azepan-1-yl(5-(2-cyclopentylethyl)-7-(trifluoromethyl)pyrazolo[1,5-a]pyrimidin-2-yl)methanone]	149 nM		Scratching behavior inhibition rate [3, 6]: 60%
CC1(C)CCCCN1C(=O)c1cc2nc(C3CCCCC3)cc(C(F)(F)F)n2n1 [Example 65]	107 nM	27%	
O=C(c1cc2nc(C34CC5CC(CC(C5)C3)C4)cc(C(F)(F)F)n2n1)N1CCCCCC1 [Example 94]	141 nM		scratching-behavior inhibition rate ([4]; solvent Acetone/methanol (1:1)): 44%
O=C(c1cc2nc(CC3CCCC3)cc(C(F)(F)F)n2n1)N1CCCCCC1 [Example 4, azepan-1-yl(5-(cyclopentylmethyl)-7-(trifluoromethyl)pyrazolo[1,5-a]pyrimidin-2-yl)methanone]	109 nM		Scratching behavior inhibition rate [3, 7]: 56%
CCC(CC)c1cc(CC2CCCCC2)nc2cc(C(=O)N3CCCCCC3)nn12 [Example 37]	88 nM	30%	
O=C(c1cc2nc(CC3CCCCC3)cc(C3CCCCC3)n2n1)N1CCCCCC1 [Example 8, azepan-1-yl(7-cyclohexyl-5-(cyclohexylmethyl)pyrazolo[1,5-a]pyrimidin-2-yl)methanone]	95 nM	30%	Scratching behavior inhibition rate [3, 6]: 50%
CC(C)c1cc(CC2CCCCC2)nc2cc(C(=O)N3CCCCCC3)nn12 [Example 7, azepan-1-yl(5-(cyclohexylmethyl)-7-isopropylpyrazolo[1,5-a]pyrimidin-2-yl)methanone]		32%	IC50 ([1]; IC50 (nM)): 113 nM; Irritant score Day 7 [2]: 0.3; Irritant score Maximum [2]: 1.3; Scratching behavior inhibition rate [3, 6]: 70%
O=C(c1cc2nc(CC3CCCCC3)cc(C(F)(F)F)n2n1)N1CCCCCC1 [Example 3, azepan-1-yl(5-(cyclohexylmethyl)-7-(trifluoromethyl)pyrazolo[1,5-a]pyrimidin-2-yl)methanone]	23 nM		scratching-behavior inhibition rate ([4]; solvent 70% ethanol): 33%; Irritant score Day 7 [2]: 1.5; Irritant score Maximum [2]: 1.6; Scratching behavior inhibition rate [3, 7]: 71%
O=C(c1cc2nc(C3CCCC3)cc(C(F)(F)F)n2n1)N1CCCCCC1 [Example 55]	569 nM		scratching-behavior inhibition rate ([4]; solvent Acetone/methanol (1:1)): 47%; Scratching behavior inhibition rate ([3]; assessed concentration 6%, solvent Acetone/methanol (1:1)): 54%
CCc1cc(CC2CCCC2)nc2cc(C(=O)N3CCCCC3(C)C)nn12 [Example 11]	252 nM		Scratching behavior inhibition rate [3, 6]: 80%
CC1(C)CCN(C(=O)c2cc3nc(CC4CCCC4)cc(C(F)(F)F)n3n2)C(C)(C)C1=O [Example 105]	83 nM	27%	
O=C(c1cc2nc(C3CCCCC3)cc(C(F)(F)F)n2n1)N1CCCCCC1 [Example 54]	355 nM		scratching-behavior inhibition rate ([4]; solvent Acetone/methanol (1:1)): 25%

SMILES	IC50 [1, 5]	scratching-behavior inhibition rate ([4]; solvent 100% ethanol)	other results
CC(C)c1cc(C23CC4CC(CC(C4)C2)C3)nc2cc(C(=O)N3CCNCC3(C)C)nn12 [Example 59]	357 nM		scratching-behavior inhibition rate ([4]; solvent Acetone/methanol (1:1)): 28%
CC1(C)CC(O)CCN1C(=O)c1cc2nc(CC3CCCCC3)cc(C(F)(F)F)n2n1 (stereo not drawn) [Example 5]	130 nM	36%	
CCc1cc(CC2CCCCC2)nc2cc(C(=O)N3CCCCCC3)nn12 [Example 19]	131 nM	42%	Scratching behavior inhibition rate [3, 8]: 70%
CCCc1cc(C23CC4CC(CC(C4)C2)C3)nc2cc(C(=O)N3CCCCCC3)nn12 [Example 1]	173 nM	35%	Scratching behavior inhibition rate [3, 6]: 76%
CC(C)c1cc(C2CCCCC2)nc2cc(C(=O)N3CCCCC3(C)C)nn12 [Example 32]	118 nM	41%	
CCCCc1cc(CC2CCCCC2)nc2cc(C(=O)N3CCCCCC3)nn12 [Example 10]	178 nM	41%	Scratching behavior inhibition rate [3, 8]: 48%
CC(C)c1cc(C23CC4CC(CC(C4)C2)C3)nc2cc(C(=O)N3CCCCC3(C)C)nn12 [Example 2]	31 nM	46%	
CCCc1cc(CC2CCCC2)nc2cc(C(=O)N3CCCCCC3)nn12 [Example 16]	259 nM	47%	
CC1(C)CNCCCN1C(=O)c1cc2nc(C34CC5CC(CC(C5)C3)C4)cc(C(F)(F)F)n2n1 [Example 110]	228 nM		scratching-behavior inhibition rate ([4]; solvent Acetone/methanol (1:1)): 25%
CC(C)c1cc(CC2CCCC2)nc2cc(C(=O)N3CCC(C)(C)C(=O)C3(C)C)nn12 [Example 71]	115 nM	27%	
CCC(CC)c1cc(CC2CCCC2)nc2cc(C(=O)N3CCC(C)(C)C(=O)C3(C)C)nn12 [Example 70]	51 nM	33%	
CC1(C)CNCCN1C(=O)c1cc2nc(C34CC5CC(CC(C5)C3)C4)cc(C(F)(F)F)n2n1 [Example 53, [5-(1-adamantyl)-7-(trifluoromethyl)pyrazolo[1,5-a]pyrimidin-2-yl]-(2,2-dimethylpiperazin-1-yl)methanone]	404 nM		scratching-behavior inhibition rate ([4]; solvent Acetone/methanol (1:1)): 44%
CC(C)c1cc(CCC2CCCC2)nc2cc(C(=O)N3CCCCCC3)nn12 [Example 14]	186 nM		Irritant score Day 7 [2]: 2.0; Irritant score Maximum [2]: 2.0; Scratching behavior inhibition rate [3, 6]: 95%
CC(C)c1cc(CC2CCC3CCCCC3C2)nc2cc(C(=O)N3CCCCCC3)nn12 (stereo not drawn) [Example 155]			IC50 ([1]; IC50 (nM)): 218 nM
CCCCCc1cc(CC2CCCCC2)nc2cc(C(=O)N3CCCCCC3)nn12 [Example 44]	208 nM		

From patent publication US20240376109A1, “PYRAZOLO[1,5-A]PYRIMIDINE COMPOUND FOR THE TREATMENT OF DERMAL DISORDERS” (OTSUKA PHARMACEUTICAL CO., LTD., priority 2021, published 2024)
